Data: patent US12697403B2, “Small molecules for dual function positron emission tomography (PET) and cell suicide switches” (THE TRUSTEES OF THE UNIVERSITY OF PENNSYLVANIA, priority 2017, dated 2026)

Legend:
F36V-FKBP = F36V-FKBP (Homo sapiens, UniProt P62942, F37V); settings: cited from earlier work; for binding to mutant F36V-FKBP relative to the wild-type protein: F36V-FKBP versus wild-type FKBP
iCasp9 modified T cells = settings: cited from earlier work
[1] = biological target: T1, iCasp9 in CAR T cells directed against desmoglein-3 (Homo sapiens, UniProt P55211+P62942, F37V); assay: Caspase activation / killing of iCasp9 CAR T cells by AP20187; assay type: cell-based; settings: T cells transduced with CARs containing iCasp9; read-out: IC50 (fraction of dead cells)
T1 construct: expressed in transfected cells; host or cells: T cells
Excerpt: (§1) The iCasp9 system has been previously incorporated into CAR T cells directed against desmoglein-3 by others for studying pemphigus. T cells were transduced with two different CARs containing iCasp9 (iC9) and one CAR without iC9. The inducible caspase 9 was activated by treatment with varying concentrations of AP20187, a chemical inducer of dimerization which is an analog of AP1903 (FIG. 9). Of note is that the fraction of dead cells is less than 100% because not all of the cells were transduced. The IC50 of AP20187 is <0.1 nM. Nontransduced cells (NTD) and cells without iC9 were not killed by AP20187.

[2] = tested on: iCasp9 in CAR T cells directed against desmoglein-3; assay: as above; assay type: cell-based; settings: nontransduced cells (NTD) and cells without iC9
Excerpt: as §1

[3] = biological target: T2, MDA-MB231 cells transduced with DHFR-iCasp9 (Escherichia coli, UniProt P0ABQ4); settings: for activation of the DHFR-iCasp9 suicide gene: MDA-MB231 cells transduced with DHFR-15-iCasp9 or DHFR-18-iCasp9
T2 sequence (P0ABQ4 1-159): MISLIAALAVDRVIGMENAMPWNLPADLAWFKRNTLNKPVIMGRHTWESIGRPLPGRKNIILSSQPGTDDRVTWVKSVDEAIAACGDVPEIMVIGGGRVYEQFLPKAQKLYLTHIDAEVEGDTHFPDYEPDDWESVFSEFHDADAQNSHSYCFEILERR
T2 sequence (P55211 135-416 partner): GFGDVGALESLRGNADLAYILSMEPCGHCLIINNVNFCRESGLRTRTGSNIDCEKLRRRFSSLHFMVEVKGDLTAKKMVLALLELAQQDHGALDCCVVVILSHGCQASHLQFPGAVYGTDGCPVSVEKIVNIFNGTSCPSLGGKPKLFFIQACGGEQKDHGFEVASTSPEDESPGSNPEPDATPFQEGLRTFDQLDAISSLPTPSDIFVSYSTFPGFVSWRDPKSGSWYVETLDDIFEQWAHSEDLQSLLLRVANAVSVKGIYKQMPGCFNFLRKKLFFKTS
Method: (§2) Procedure for DHFR-iCasp9 Cell Kill Assay with Bis-TMP Compounds: • Cell culture • Cell lines (MDA-MB231-luc transduced with DHFR-icasp9 with different linker lengths) were cultured in DMEM (Gibco) with 10% fetal bovine serum (Sigma), 100 U/mL penicillin and 100 ug/mL streptomycin (Invitrogen). • Incubation is done at 37° C. with 5% CO2 • Cell assay • Cells were plated on 96 well black plate, 3×10^4 cells/well. • The next day, cells were treated with varying concentrations of Bis-TMP compounds (Bis-TMP-#). • Cells were incubated for 24 hours and luciferin was added (120 ug/mL), after which bioluminescence was measured using Perkin Elmer Enspire Multi-mode Plate reader. Luminescence Assay with HCT116-L106P-tsLuc Cells Following Treatment with Shield-1 Compounds: • Day 1: Plate 50,000 cells/50 uL/well on 96 well black plate. • Day 2: • Add compounds (FP-Shield-1, control Shield-1 in 50 uL volume). • Incubate for 24 h at 37° C. with CO2. • Day 3: Add luciferin and read immediately.

[4] = tested on: luciferase fused to the FKBP12 L106P destabilizing domain (L106P-tsLuc); assay: Luminescence assay with HCT116-L106P-tsLuc cells; assay type: cell-based; settings: HCT116 cells expressing L106P-tsLuc, 3 nM to 10 uM
Method: as §2

[5] = tested on: LID system (F36V-FKBP with degron) fused to CAR in T cells; settings: preclinical studies; cited from earlier work

For CC[C@H](C(=O)N1CCCC[C@H]1C(=O)O[C@H](CCc1ccc(OC)c(OC)c1)c1cccc(OCC(=O)NCCNC(=O)COc2cccc([C@@H](CCc3ccc(OC)c(OC)c3)OC(=O)[C@@H]3CCCCN3C(=O)[C@@H](CC)c3cc(OC)c(OC)c(OC)c3)c2)c1)c1cc(OC)c(OC)c(OC)c1 [AP1903], the “binding to mutant F36V-FKBP relative to the wild-type protein” value (F36V-FKBP) is given as “greater than three orders of magnitude”, the “adverse events in humans” value (iCasp9 modified T cells; given to humans) is given as “without any reported serious adverse events” and the “modified T cells eliminated” value (iCasp9 modified T cells; patients with GVHD, single dose, within 30 min after administration) is given as “more than 90%”. For the same compound, the graft-versus-host disease outcome (iCasp9 modified T cells; patients with GVHD, single dose) was “terminated without abrogating immune reconstitution”.
For CC[C@H](C(=O)N1CCCC[C@H]1C(=O)O[C@H](CCc1ccc(OC)c(OC)c1)c1cccc(OCC(=O)NCC(CNC(=O)COc2cccc([C@@H](CCc3ccc(OC)c(OC)c3)OC(=O)[C@@H]3CCCCN3C(=O)[C@@H](CC)c3cc(OC)c(OC)c(OC)c3)c2)CN(C)C)c1)c1cc(OC)c(OC)c(OC)c1 [AP20187], the IC50 [1] was less than 0.1 nM and the “killing of control cells” value [2] was “not killed”.
With COc1cc(Cc2cnc(N)nc2N)cc(OC)c1OCCCCC(=O)NCCCOCCCNC(=O)CCCCOc1c(OC)cc(Cc2cnc(N)nc2N)cc1OC [Bis-TMP-21, N,N′-(oxybis(propane-3,1-diyl))bis(5-(4-((2,4-diaminopyrimidin-5-yl)methyl)-2,6-dimethoxyphenoxy)pentanamide)] the “activation of the DHFR-iCasp9 suicide gene” value [3] was “potent activation of the DHFR-iCasp9 suicide gene at low nM concentrations”.
In the case of COc1cc(Cc2cnc(N)nc2N)cc(OC)c1OCCCCC(=O)NCCCOCCOCCOCCCNC(=O)CCCCOc1c(OC)cc(Cc2cnc(N)nc2N)cc1OC [Bis-TMP-27, N,N′-(((oxybis(ethane-2,1-diyl))bis(oxy))bis(propane-3,1-diyl))bis(5-(4-((2,4-diaminopyrimidin-5-yl)methyl)-2,6-dimethoxyphenoxy)pentanamide)], the “activation of the DHFR-iCasp9 suicide gene” value [3] is reported as “potent activation of the DHFR-iCasp9 suicide gene at low nM concentrations”, the cells killed ([3]; MDA-MB231 cells transduced with DHFR-18-iCasp9, 24 hours) is reported as ~ 70% and the IC50 ([3]; read-out: IC50 of cell killing, MDA-MB231 cells transduced with DHFR-18-iCasp9, 24 hours) is reported as roughly 5 nM.
For CC[C@H](C(=O)N1CCCC[C@H]1C(=O)O[C@H](CCc1ccc(OC)c(OC)c1)c1cccc(OCCN2CCOCC2)c1)c1cc(OC)c(OC)c(OC)c1 [Shield-1], the “protein stabilization (luminescence)” value [4] is listed as “equivalent protein stabilization when compared to the literature”, the “binding to mutant F36V-FKBP relative to the wild-type protein” value (F36V-FKBP) is listed as “greater than three orders of magnitude” and the IC50 (F36V-FKBP; read-out: IC50 for the mutant protein F36V-FKBP) is listed as 3.3 nM. The “IC50 for control of CAR expression” value [5] was “in the nM range”.
